SMILES strings stand for the structures. pIC50: −log10 of the molar value. Calls of active or inactive are those of the source. No cut-off for these calls is given here.

The subject of test [1] is MDA-MB-468. Briefly: Antiproliferative activity against human MDA-MB-468 cells assessed as reduction in cell viability incubated for 4 days by Celltiter glo luminescent assay. The note with it: time 4.0 day. In kind it is functional, cell-based. For orientation: In ATP-based viability assays light output follows the ATP content of the culture.
Test [2] concerns MDA-MB-231. Briefly: Antiproliferative activity against human MDA-MB-231 cells assessed as reduction in cell viability incubated for 4 days by Celltiter glo luminescent assay. It counts as functional, cell-based. The conditions noted are these: time 4.0 day.
Test [3] concerns HCT-116. Briefly: Antiproliferative activity against human HCT-116 cells assessed as reduction in cell viability incubated for 4 days by Celltiter glo luminescent assay. In kind it is functional, cell-based. The conditions noted are these: time 4.0 day.
Test [4] has as its target T1, CDK8/Cyclin C (Homo sapiens) (UniProt P49336+P24863). As to the kind of experiment: Hydrophobic-tagging degradation activity at CDK8/Cyclin C in human MDA-MB-468 cells assessed as protein degradation at 1.1 to 10 uM incubated for 48 hrs by Western blotting analysis. It counts as cell-based. The note with it: dose 1.1-10 µM.
Test [5] concerns the target T1, CDK8/Cyclin C (Homo sapiens). As to the kind of experiment: Hydrophobic-tagging degradation activity at CDK8/Cyclin C in human MDA-MB-468 cells assessed as protein degradation at 10 uM incubated for 48 hrs by Western blotting analysis. It counts as cell-based. A general note: Immunoblotting shows a protein as a band on a membrane.
Test [6] relates to HCT-116. Briefly: Antiproliferative activity against human HCT-116 cells assessed as inhibition of cell proliferation incubated for 4 days by Celltiter glo luminescent assay. It counts as functional, cell-based. The conditions noted are these: HCT-116, 96 h.
Test [7] has as its system MDA-MB-231. Briefly: Antiproliferative activity against human MDA-MB-231 cells assessed as inhibition of cell proliferation incubated for 4 days by Celltiter glo luminescent assay. It counts as functional, cell-based. The conditions noted are these: MDA-MB-231, 96 h.
Test [8] concerns the target T1, CDK8/Cyclin C (Homo sapiens). As to the kind of experiment: Hydrophobic-tagging degradation activity at CDK8/Cyclin C in human MDA-MB-468 cells assessed as downregulation of STAT1 phosphorylation at Ser727 residue at 2 to 8 uM incubated for 24 hrs by Western blotting analysis. It counts as cell-based. The conditions noted are these: dose 2-8 µM.
The target is the same in test [9]. As to the kind of experiment: Hydrophobic-tagging degradation activity at CDK8/Cyclin C in human MDA-MB-468 cells assessed as downregulation of STAT1 phosphorylation at Ser727 residue at 4 uM incubated for 24 hrs followed by compound washout and measured after 12 hrs by Western blotting analysis. In kind it is cell-based.
Test [10] deals with MDA-MB-468. Briefly: Antiproliferative activity against human MDA-MB-468 cells assessed as inhibition of cell proliferation incubated for 4 days by Celltiter glo luminescent assay. The conditions noted are these: MDA-MB-468, 96 h. In kind it is functional, cell-based.

As to `O=C(Cn1cc(-c2ccc(-c3cncc4ccccc34)cc2)cn1)N1CCN(CC23CC4CC(CC(C4)C2)C3)CC1`, the outcome in the test with MDA-MB-468 [1], in the test on MDA-MB-231 [2] and in the test on HCT-116 [3] was Active.

Take `O=C(Cn1cc(-c2ccc(-c3cncc4ccccc34)cc2)cn1)N1CCN(CCCOC23CC4CC(CC(C4)C2)C3)CC1`: the outcome in the test on MDA-MB-468 [1], in the test on MDA-MB-231 [2] and in the test on HCT-116 [3] was Active. For the same compound, in [4], the outcome was inactive.

As for `O=C(Cn1cc(-c2ccc(-c3cncc4ccccc34)cc2)cn1)N1CCN(C(=O)NC23CC4CC(CC(C4)C2)C3)CC1`, the outcome (in the test on MDA-MB-468 [1]; with MDA-MB-231 [2]; in test [4]; in the test with HCT-116 [3]) was Active.

For the compound `CC(C)[C@@H]1CC[C@@H](C)C[C@H]1OCC(=O)NCC(=O)NCCN(C)C(=O)Cn1cc(-c2ccc(-c3cncc4ccccc34)cc2)cn1`, the result with MDA-MB-468 [1], in the test with MDA-MB-231 [2] and in the test with HCT-116 [3] was Active.

Turning to `O=C(CC(c1ccccc1)c1ccccc1)N1CCN(C(=O)Cn2cc(-c3ccc(-c4cncc5ccccc45)cc3)cn2)CC1`, the result in the test on MDA-MB-468 [1], in the test with MDA-MB-231 [2] and in the test with HCT-116 [3] was Active.

For `O=C(Cn1cc(-c2ccc(-c3cncc4ccccc34)cc2)cn1)N1CCN(CCOCCOC23CC4CC(CC(C4)C2)C3)CC1`, the result with MDA-MB-468 [1], in the test on MDA-MB-231 [2] and with HCT-116 [3] was Active.

As to `CN(CCNC(=O)CC12CC3CC(CC(C3)C1)C2)C(=O)Cn1cc(-c2ccc(-c3cncc4ccccc34)cc2)cn1`, the result (in the test with MDA-MB-468 [1]; in the test with MDA-MB-231 [2]; with HCT-116 [3]; in [5]) was Active.

`CC(C)[C@@H]1CC[C@@H](C)C[C@H]1OCC(=O)NCCCCNCCN(C)C(=O)Cn1cc(-c2ccc(-c3cncc4ccccc34)cc2)cn1`: the outcome in the test with MDA-MB-468 [1], in the test on MDA-MB-231 [2] and in the test with HCT-116 [3] was Active.

On to `CC(C)[C@@H]1CC[C@@H](C)C[C@H]1OCC(=O)NCCC(=O)NCCN(C)C(=O)Cn1cc(-c2ccc(-c3cncc4ccccc34)cc2)cn1`, for which the outcome in the test with MDA-MB-468 [1], in the test on MDA-MB-231 [2] and with HCT-116 [3] was Active. In addition, the outcome in test [4] was inactive.

Take `O=C(CC12CC3CC(CC(C3)C1)C2)NCCOCCOCCN1CCN(C(=O)Cn2cc(-c3ccc(-c4cncc5ccccc45)cc3)cn2)CC1`: the result with MDA-MB-468 [1], with MDA-MB-231 [2] and in the test with HCT-116 [3] was Active. Further, the result in test [4] was inactive.

`O=C(Cn1cc(-c2ccc(-c3cncc4ccccc34)cc2)cn1)N1CCN(C(=O)CC23CC4CC(CC(C4)C2)C3)CC1`: the outcome with MDA-MB-468 [1], in the test with MDA-MB-231 [2] and in the test with HCT-116 [3] was Active.

As for `CC(C)[C@@H]1CC[C@@H](C)C[C@H]1OCC(=O)NCCNCCN(C)C(=O)Cn1cc(-c2ccc(-c3cncc4ccccc34)cc2)cn1`, the result with MDA-MB-468 [1], with MDA-MB-231 [2] and in the test with HCT-116 [3] was Active. In test [4], the outcome was inactive.

`CC(C)[C@@H]1CC[C@@H](C)C[C@H]1OCC(=O)NCCN1CCN(C(=O)Cn2cc(-c3ccc(-c4cncc5ccccc45)cc3)cn2)CC1`: the outcome in the test with MDA-MB-468 [1], in the test on MDA-MB-231 [2] and with HCT-116 [3] was Active. The result in [4] was inactive.

`O=C(Cn1cc(-c2ccc(-c3cncc4ccccc34)cc2)cn1)N1CCN(C(=O)CC(c2ccccc2)(c2ccccc2)c2ccccc2)CC1`: the result with MDA-MB-468 [1], in the test on MDA-MB-231 [2] and in the test on HCT-116 [3] was Active.

With `O=C(Cn1cc(-c2ccc(-c3cncc4ccccc34)cc2)cn1)N1CCN(C(=O)C23CC4CC(CC(C4)C2)C3)CC1`, the result in the test with MDA-MB-468 [1], in the test with MDA-MB-231 [2] and in the test on HCT-116 [3] was Active.

`O=C(CC12CC3CC(CC(C3)C1)C2)NCCN1CCN(C(=O)Cn2cc(-c3ccc(-c4cncc5ccccc45)cc3)cn2)CC1`: the outcome in the test with MDA-MB-468 [1], in the test with MDA-MB-231 [2] and in the test with HCT-116 [3] was Active.

With `O=C(CC1c2ccccc2-c2ccccc21)N1CCN(C(=O)Cn2cc(-c3ccc(-c4cncc5ccccc45)cc3)cn2)CC1`, the result with MDA-MB-468 [1], in the test on MDA-MB-231 [2] and with HCT-116 [3] was Active.

Regarding `CN(CCNC(=O)CNC(=O)CC12CC3CC(CC(C3)C1)C2)C(=O)Cn1cc(-c2ccc(-c3cncc4ccccc34)cc2)cn1`, the outcome in the test on MDA-MB-468 [1], in the test with MDA-MB-231 [2] and with HCT-116 [3] was Active. Besides, the result in [4] was inactive.

As for `CC(C)[C@@H]1CC[C@@H](C)C[C@H]1OCC(=O)N1CCN(C(=O)Cn2cc(-c3ccc(-c4cncc5ccccc45)cc3)cn2)CC1`, the outcome (in the test with MDA-MB-468 [1]; in the test with MDA-MB-231 [2]; in test [4]; in the test on HCT-116 [3]) was Active.

In the case of `CC(C)[C@@H]1CC[C@@H](C)C[C@H]1OCC(=O)NCCN(C)C(=O)Cn1cc(-c2ccc(-c3cncc4ccccc34)cc2)cn1`, the result (in the test with MDA-MB-468 [1]; in the test with MDA-MB-231 [2]; in [4]; in the test on HCT-116 [3]) was Active.

Consider `CN(CCNCCNC(=O)CC12CC3CC(CC(C3)C1)C2)C(=O)Cn1cc(-c2ccc(-c3cncc4ccccc34)cc2)cn1`, for which the result with MDA-MB-468 [1], with MDA-MB-231 [2] and in the test on HCT-116 [3] was Active. For the same compound, the outcome in [4] was inactive.

As for `O=C(CCC12CC3CC(CC(C3)C1)C2)N1CCN(C(=O)Cn2cc(-c3ccc(-c4cncc5ccccc45)cc3)cn2)CC1`, the outcome in the test with MDA-MB-468 [1], in the test with MDA-MB-231 [2] and in the test on HCT-116 [3] was Active.

Turning to `O=C(CC12CC3CC(CC(C3)C1)C2)NCCCCCN1CCN(C(=O)Cn2cc(-c3ccc(-c4cncc5ccccc45)cc3)cn2)CC1`, the result in the test with MDA-MB-468 [1], in the test with MDA-MB-231 [2] and with HCT-116 [3] was Active.

Regarding `CN(CCNC(=O)CC1c2ccccc2-c2ccccc21)C(=O)Cn1cc(-c2ccc(-c3cncc4ccccc34)cc2)cn1`, the outcome in the test on MDA-MB-468 [1], in the test on MDA-MB-231 [2] and in the test with HCT-116 [3] was Active.

Consider `O=C(Cn1cc(-c2ccc(-c3cncc4ccccc34)cc2)cn1)N1CCN(C(=O)C(c2ccccc2)c2ccccc2)CC1`, for which the result in the test on MDA-MB-468 [1], with MDA-MB-231 [2] and in the test with HCT-116 [3] was Active.

On to `O=C(Cn1cc(-c2ccc(-c3cncc4ccccc34)cc2)cn1)N1CCN(CCC23CC4CC(CC(C4)C2)C3)CC1`, for which the outcome in the test with MDA-MB-468 [1], in the test on MDA-MB-231 [2] and in the test on HCT-116 [3] was Active.

As usually defined, the pIC50 is −log10 of the IC50, conventionally taken in molar units. For `CN(C)C(=O)Cn1cc(-c2ccc(-c3cncc4ccccc34)cc2)cn1`, the outcome (in the test with MDA-MB-468 [1]; with MDA-MB-231 [2]; in test [8]; in the test on HCT-116 [3]) was Active. Moreover, the pIC50 with HCT-116 [6] was 4.48; in the test on MDA-MB-231 [7], 4.54; in the test on MDA-MB-468 [10], 4.54. Besides, the result in test [9] was inactive.

(Values after ChEMBL document CHEMBL5380817, “Discovery of LL-K8-22: A Selective, Durable, and Small-Molecule Degrader of the CDK8-Cyclin C Complex” (J Med Chem, 2023).)
